Molecular target: T1, recombinant human secreted phospholipase A2 (Homo sapiens, UniProt P14555)
T1 sequence (P14555 21-144): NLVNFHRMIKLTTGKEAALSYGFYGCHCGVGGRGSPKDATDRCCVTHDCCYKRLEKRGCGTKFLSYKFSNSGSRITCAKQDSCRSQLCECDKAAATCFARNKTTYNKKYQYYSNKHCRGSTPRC
Experiment: chromogenic assay for inhibitors of recombinant human secreted phospholipase A2
Format: biochemical
Description: The following chromogenic assay procedure was used to identify and evaluate inhibitors of recombinant human secreted phospholipase A2. The assay described herein has been adapted for high volume screening using 96 well microtiter plates. A general description of this assay method is found in the article, “Analysis of Human Synovial Fluid Phospholipase A2 on Short Chain Phosphatidylcholine-Mixed Micelles: Development of a Spectrophotometric Assay Suitable for a Microtiterplate Reader”, by Laure J. Reynolds, Lori L. Hughes, and Edward A Dennis, Analytical Biochemistry, 204, pp. 190-197, 1992 (the disclosure of which is incorporated herein by reference): […]
A measured volume of racemic dipheptanoyl thio PC supplied in chloroform at a concentration of 100 mg/ml is taken to dryness and redissolved in 10 millimolar TRITON X-100™ nonionic detergent aqueous solution. […]
5. Read absorbance of wells at 405 nanometers with an automatic plate reader.
All compounds were tested in triplicate. […] Compounds initially found to be active were reassayed to confirm their activity and, if sufficiently active, IC50 values were determined. […] In all cases, % inhibition measured at 405 nanometers generated by enzyme reactions containing inhibitors relative to the uninhibited control reactions was determined. […] IC50 were determined by plotting log concentration versus inhibition values in the range from 10-90% inhibition.

- activity in inhibiting sPLA2 (in words): highly active
- IC50 (diheptanoyl thio-PC substrate, pH 7.5, 40° C. for 30 minutes, absorbance at 405 nanometers, read-out: Inhibition of human secreted PLA2 IC50 ± mean deviation (3-4 tests)): 49 nM
SMILES: CCc1c(/C(=N/O)C(N)=O)c2c(OCC(=O)O)cccc2n1Cc1ccccc1 [Example 1]
